target: Substance-P receptor (Homo sapiens, UniProt P25103); experiment: Ability to displace [125I]-substance P from hNK1 receptor in chinese hamster ovarian (CHO) cells; format: cell-based
Sequence (P25103 whole entry): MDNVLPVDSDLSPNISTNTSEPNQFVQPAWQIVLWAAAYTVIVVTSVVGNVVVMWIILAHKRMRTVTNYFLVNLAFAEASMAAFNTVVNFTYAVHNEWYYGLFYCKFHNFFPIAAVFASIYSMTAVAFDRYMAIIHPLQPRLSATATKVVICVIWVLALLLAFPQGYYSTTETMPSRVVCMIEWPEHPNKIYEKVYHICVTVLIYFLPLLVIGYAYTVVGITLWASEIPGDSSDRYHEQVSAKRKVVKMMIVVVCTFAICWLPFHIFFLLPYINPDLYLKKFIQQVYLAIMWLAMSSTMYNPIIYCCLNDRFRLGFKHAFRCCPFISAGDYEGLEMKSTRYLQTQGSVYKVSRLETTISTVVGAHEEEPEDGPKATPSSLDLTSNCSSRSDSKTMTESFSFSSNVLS

First: CS(=O)(=O)N1CC2(CCN(C(=O)[C@H](COCc3ccccc3)NCc3ccc(Cl)c(Cl)c3)CC2)c2ccccc21
Second: CS(=O)(=O)N1CC2(CCN(C(=O)[C@@H](COCc3ccccc3)NCc3ccc(Cl)c(Cl)c3)CC2)c2ccccc21
The IC50 of the first is 2.3-fold lower: 18 nM for the first, 42 nM for the second.

First: CS(=O)(=O)N1CC2(CCN(C(=O)C(COCc3ccccc3)NCc3ccccc3Cl)CC2)c2ccccc21 (centres undefined)
Second: CS(=O)(=O)N1CC2(CCN(C(=O)[C@H](COCc3ccccc3Cl)NCc3ccccc3)CC2)c2ccccc21
The IC50 of the first is 15-fold higher: 542 nM for the first, 36 nM for the second. The second is the more potent here.

First: CS(=O)(=O)N1CC2(CCN(C(=O)C(COCc3ccccc3)NS(=O)(=O)c3ccc(Cl)c(Cl)c3)CC2)c2ccccc21 (centres undefined)
Second: CS(=O)(=O)N1CC2(CCN(C(=O)C(COCc3ccccc3)NC(=O)c3ccc(Cl)c(Cl)c3)CC2)c2ccccc21 (centres undefined)
The IC50 of the first is 3-fold lower: 88 nM for the first, 260 nM for the second. The first is the more potent here.

Going from `CS(=O)(=O)N1CC2(CCN(C(=O)[C@H](COCc3cc(C(F)(F)F)cc(C(F)(F)F)c3)NC(=O)c3ccc(Cl)c(Cl)c3)CC2)c2ccccc21` to `CS(=O)(=O)N1CC2(CCN(C(=O)C(COCc3ccccc3)NC(=O)Cc3ccc(Cl)c(Cl)c3)CC2)c2ccccc21` (centres undefined), the IC50 falls from 1300 nM to 43 nM (30-fold). The second is the more potent here.

Going from `CS(=O)(=O)N1CC2(CCN(C(=O)C(COCc3ccccc3)NCc3c(Cl)cccc3Cl)CC2)c2ccccc21` (centres undefined) to `CS(=O)(=O)N1CC2(CCN(C(=O)C(COCc3ccccc3)NCc3cccc(Cl)c3Cl)CC2)c2ccccc21` (centres undefined), the IC50 falls from 895 nM to 153 nM (5.8-fold). The second is the more potent here.

`Cc1cccc(CNC(COCc2ccccc2)C(=O)N2CCC3(CC2)CN(S(C)(=O)=O)c2ccccc23)c1` (centres undefined) and `CS(=O)(=O)N1CC2(CCN(C(=O)C(COCc3ccccc3)NCc3cccc(Cl)c3)CC2)c2ccccc21` (centres undefined) are within 1.5-fold of each other in IC50: 55 nM for the first, 58 nM for the second.

Compared with `CS(=O)(=O)N1CC2(CCN(C(=O)[C@H](COCc3ccccc3Cl)NCc3ccc(Cl)c(Cl)c3)CC2)c2ccccc21`, `CS(=O)(=O)N1CC2(CCN(C(=O)C(COCc3ccccc3)NCc3ccc(Cl)c(Cl)c3)CC2)c2ccccc21` (centres undefined) is 2.8-fold lower in IC50: 34 nM for the first, 12 nM for the second.

Going from `CS(=O)(=O)N1CC2(CCN(C(=O)C(COCc3ccccc3)NCc3ccc(Cl)cc3)CC2)c2ccccc21` (centres undefined) to `CS(=O)(=O)N1CC2(CCN(C(=O)[C@H](COCc3ccc(Cl)cc3)NCc3ccccc3)CC2)c2ccccc21`, the IC50 falls from 27 nM to 6.6 nM (4.1-fold). The second is the more potent here.

Compared with `CS(=O)(=O)N1CC2(CCN(C(=O)C(CCc3ccc(Cl)c(Cl)c3)NCc3ccccc3)CC2)c2ccccc21` (centres undefined), `CS(=O)(=O)N1CC2(CCN(C(=O)C(CCCc3ccc(Cl)c(Cl)c3)NCc3ccccc3)CC2)c2ccccc21` (centres undefined) is 140-fold lower in IC50: 455 nM for the first, 3.3 nM for the second.

First: CS(=O)(=O)N1CC2(CCN(C(=O)C(COCc3ccccc3)NCc3cccc(Br)c3)CC2)c2ccccc21 (centres undefined)
Second: CS(=O)(=O)N1CC2(CCN(C(=O)C(COCc3ccccc3)NCc3cccc(F)c3)CC2)c2ccccc21 (centres undefined)
The IC50 of the first is 2.6-fold lower: 60 nM for the first, 157 nM for the second. The first is the more potent here.

First: CS(=O)(=O)N1CC2(CCN(C(=O)[C@H](COCc3cccc(Cl)c3)NCc3ccc(Cl)c(Cl)c3)CC2)c2ccccc21
Second: CS(=O)(=O)N1CC2(CCN(C(=O)[C@H](COCc3ccc(Cl)cc3)NCc3ccc(Cl)c(Cl)c3)CC2)c2ccccc21
The IC50 of the first is 2.1-fold lower: 11 nM for the first, 23 nM for the second. The first is the more potent here.

`COc1ccc(CNC(COCc2ccccc2)C(=O)N2CCC3(CC2)CN(S(C)(=O)=O)c2ccccc23)cc1` (centres undefined) and `COc1cccc(CNC(COCc2ccccc2)C(=O)N2CCC3(CC2)CN(S(C)(=O)=O)c2ccccc23)c1` (centres undefined) are within 1.5-fold of each other in IC50: 57 nM for the first, 71 nM for the second.

First: CS(=O)(=O)N1CC2(CCN(C(=O)[C@H](CSCc3ccc(Cl)c(Cl)c3)NCc3ccccc3)CC2)c2ccccc21
Second: CS(=O)(=O)N1CC2(CCN(C(=O)C(CNCc3ccc(Cl)c(Cl)c3)NCc3ccccc3)CC2)c2ccccc21 (centres undefined)
The IC50 of the first is 1.8-fold lower: 13 nM for the first, 24 nM for the second. The first is the more potent here.

`CS(=O)(=O)N1CC2(CCN(C(=O)[C@H](CS(=O)(=O)Cc3ccc(Cl)c(Cl)c3)NCc3ccccc3)CC2)c2ccccc21` and `CN(Cc1ccc(Cl)c(Cl)c1)CC(NCc1ccccc1)C(=O)N1CCC2(CC1)CN(S(C)(=O)=O)c1ccccc12` (centres undefined) are within 1.5-fold of each other in IC50: 63 nM for the first, 54 nM for the second.

Compared with `CS(=O)(=O)N1CC2(CCN(C(=O)[C@H](COCc3cccc(Cl)c3)NCc3ccccc3)CC2)c2ccccc21`, `CS(=O)(=O)N1CC2(CCN(C(=O)C(COCc3ccccc3)NCc3ccccc3)CC2)c2ccccc21` (centres undefined) is 10-fold higher in IC50: 7.7 nM for the first, 80 nM for the second. The first is the more potent here.

Going from `COc1ccccc1CNC(COCc1ccccc1)C(=O)N1CCC2(CC1)CN(S(C)(=O)=O)c1ccccc12` (centres undefined) to `CS(=O)(=O)N1CC2(CCN(C(=O)C(COCc3ccccc3)NCc3ccc(Cl)cc3Cl)CC2)c2ccccc21` (centres undefined), the IC50 falls from 163 nM to 100 nM (1.6-fold). The second is the more potent here.

First: CN(C)c1ccc(CNC(COCc2ccccc2)C(=O)N2CCC3(CC2)CN(S(C)(=O)=O)c2ccccc23)cc1 (centres undefined)
Second: CS(=O)(=O)N1CC2(CCN(C(=O)C(COCc3ccccc3)NCc3cccc(C#N)c3)CC2)c2ccccc21 (centres undefined)
The IC50 of the first is 4.6-fold lower: 33 nM for the first, 152 nM for the second.

First: CS(=O)(=O)N1CC2(CCN(C(=O)[C@H](COCc3ccc(Cl)c(Cl)c3)NCc3ccc(Cl)c(Cl)c3)CC2)c2ccccc21
Second: CS(=O)(=O)N1CC2(CCN(C(=O)C(COCc3ccccc3)NCc3cc(Cl)cc(Cl)c3)CC2)c2ccccc21 (centres undefined)
The IC50 of the first is 46-fold lower: 1.7 nM for the first, 79 nM for the second. The first is the more potent here.

`CS(=O)(=O)N1CC2(CCN(C[C@H](COCc3ccc(Cl)c(Cl)c3)NCc3ccccc3)CC2)c2ccccc21` and `CS(=O)(=O)N1CC2(CCN(C(=O)C(COCc3ccccc3)NCc3cccc([N+](=O)[O-])c3)CC2)c2ccccc21` (centres undefined) are within 1.5-fold of each other in IC50: 170 nM for the first, 120 nM for the second.

For `CS(=O)(=O)N1CC2(CCN(C(=O)C(N)COCc3ccccc3)CC2)c2ccccc21` (centres undefined), the IC50 was 2000 nM.

Reference: ChEMBL document CHEMBL1130886, “Serine derived NK1 antagonists. 1: The effect of modifications to the serine substituents” (Bioorg Med Chem Lett, 1998)
